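Exposure lasted 48 hours, with cells grown in 96-well plates and compounds tested at five concentrations. TGI denotes the concentration required for complete inhibition of growth.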
What was measured:
Assay in all cases: NCI tumour cell line growth inhibition, 48 h
[1] = test system: DU-145 prostate
[2] = test system: SR leukemia
[3] = test system: CCRF-CEM leukemia
[4] = test system: HT29 colon
[5] = test system: SF-268 CNS
[6] = test system: NCI/ADR-RES ovarian
[7] = test system: RPMI-8226 leukemia
[8] = test system: A549 NSCLC
[9] = test system: ACHN renal
[10] = test system: LOX IMVI melanoma
[11] = test system: HCT-116 colon
[12] = test system: NCI-H460 lung
[13] = test system: SW-620 colon
[14] = test system: SNB-19 CNS
[15] = test system: IGROV1 ovarian
[16] = test system: HS 578T breast
[17] = test system: PC-3 prostate
[18] = test system: KM12 colon
[19] = test system: MDA-MB-435
[20] = test system: NCI-H226 lung
[21] = test system: HOP-92 NSCLC
[22] = test system: CAKI-1 renal
[23] = test system: SF-539 CNS
[24] = test system: NCI-H522 lung
[25] = test system: A498 renal
[26] = test system: RXF 393 renal
[27] = test system: HCT-15 colon
[28] = test system: COLO 205 colon
[29] = test system: T-47D breast
[30] = test system: SF-295 CNS
[31] = test system: 786-0 renal
[32] = test system: SK-MEL-28 melanoma
[33] = test system: MCF7 breast
[34] = test system: NCI-H23 lung
[35] = test system: UO-31 renal
[36] = test system: OVCAR-8 ovarian
[37] = test system: EKVX NSCLC
[38] = test system: MALME-3M melanoma
[39] = test system: OVCAR-4 ovarian
[40] = test system: K-562 leukemia
[41] = test system: HOP-62 NSCLC
[42] = test system: U251 CNS
[43] = test system: OVCAR-5 ovarian
[44] = test system: SN12C renal
[45] = test system: HL-60(TB) leukemia
[46] = test system: HCC-2998 colon
[47] = test system: MDA-N
[48] = test system: UACC-62 melanoma
[49] = test system: M14 melanoma
[50] = test system: MDA-MB-231 breast
[51] = test system: TK-10 renal
[52] = test system: SK-OV-3 ovarian
[53] = test system: SK-MEL-5 melanoma
[54] = test system: OVCAR-3 ovarian
[55] = test system: SNB-75 CNS
[56] = test system: SK-MEL-2 melanoma
[57] = test system: MOLT-4 leukemia
[58] = test system: UACC-257 melanoma

Measured: TGI

O=C(O)C1(CC(CCCN2CCCCC2)c2ccccc2)CCCC1 (stereo not drawn)
not listed: [58]
> 100 µM: all other assays above

O=C(O)C1C2CCC(C2)C1c1ccccc1 (stereo not drawn)
not listed: [15] | [39]
> 100 µM: all other assays above

From PubChem BioAssay (NCI)
